According to patent publication US6596712B2, “Treatment of carcinomas using squalamine in combination with other anti-cancer agents or modalities” (Genaera Corporation, priority 1996, dated 2003):

Experiments:
[1] = test system: 9L gliosarcoma tumors (9L glioma); test: 9L glioma flank study; format: in vivo, Fisher 344 rats; conditions: Day 25 or 26 after implantation, treatment from Day 5 per Table 4
Experimental: Four groups of rats (twenty total Fisher 344 rats, 200 g) were given s.q. transplants of 1 mm3 9L gliosarcoma tumors (9L glioma) on Day 0. The tumors were implanted in the rat flanks to avoid complications relating to adequate brain levels of squalamine. Randomization and treatment began on Day 5 according to the following scheme:
On Day 25 or 26 after tumor implantation, the tumor size was measured directly. The tumor size (i.e., its volume “V”) was estimated based on volumetric calculations determined from the measured length (“L”), width (“W”), and height (“H”) of the tumor (Vtumor spheroid˜0.5 ×L×W×H). The tumor volumes shown in Table 5 represent the mean tumor volumes for each treatment group for those animals that survived to the end of the experiment.

[2] = test system: VEGF-stimulated bovine retinal endothelial cells; test: Growth of VEGF-stimulated endothelial cells; format: cell-based; conditions: Bos taurus, Endothelial cell, 48 hours, VEGF 20 ng/ml
Experimental: In conducting this in vitro analysis, the following cell lines were tested: (a) bovine retinal endothelial cells; (b) 9L and C6 rat glioma cells; (c) human H80 glioma cells; and (d) VX2 rabbit carcinoma cells (the same type as the tumors implanted in the rabbit corneal micropocket assay test described above). The endothelial mitogen which was used in this analysis was VEGF at a concentration of 20 ng/ml.
The cells were allowed to attach overnight to tissue culture plates containing an optimized growth media. Following attachment, the cells were exposed to solvent only or 5 to increasing concentrations of squalamine (0, 10, 20, 30, 60, and 90 μg squalamine/ml). Cell growth was counted daily for three days using a Coulter Counter. A total of 10,000 cells per well were plated and each experimental concentration was tested in quadruplicate. The results were then averaged. The bovine retinal endothelial cells were grown and treated in an identical manner to the other cell lines, except that the growth of these cells was measured after the addition of 20 ng/ml of human recombinant VEGF to the cells prior to the squalamine treatment.
Percentage endothelial cell growth inhibition (%I) was determined by the following equation: [formula]

[3] = test system: H460 human lung adenocarcinoma line; test: Nude mouse xenograft model of lung cancer with cisplatin, H460; format: in vivo; conditions: started on day 4 or 5, daily i.p.
Text: Studies in a nude mouse xenograft model of lung cancer have been carried out using several human lung cancer lines which differ in their growth rate. […] The experimental lung cancer model design involves subcutaneous injection of 5×10^6 tumor cells followed by a single injection of the chemotherapeutic drug on day 3 or 4. […] Groups of mice receiving squalamine alone started receiving the aminosterol on the same day as aminosterol treatment in the combination chemotherapy groups. Tumor volumes were then determined at termination of the experiment and compared.

human NHE3 = target: T1, human NHE3 (Homo sapiens, UniProt P48764); test: NHE activity in PS 120 fibroblasts transfected with human NHE3 (BCECF pH change rate); format: cell-based
T1 construct: expressed in transfected cells; host or cells: PS 120 NHE-deficient fibroblasts
Experimental: The following describes the test used to determine that squalamine inhibits NHE3, but not NHE1 or NHE2. NHE deficient fibroblast cells (PS 120) transfected with an individual human NHE gene were loaded with a pH sensitive dye 2′7′-bis(2-carboxyethyl)-5,6-carboxyfluorescein (BCECF). NHE activity was measured by spectrofluorometric methods using this dye and by amiloride sensitive isotopic ^22Na^+cellular uptake. The cells were acidified by exposure to ammonium chloride in the absence of sodium to eliminate sodium and deactivate the proton pumps. The ammonium chloride was washed out by exposing the cells to tetramethyl ammonium chloride in bicarbonate free medium. […] Sodium then was added back at various concentrations (see the abscissa of FIGS. 5a and 5b) to drive the antiporters (human NHE3 in FIG. 5a and human NHE1 in FIG. 5b). The antiporters were driven at different rates, as evidenced by the cellular pH change rate, depending on the amount of sodium added.
As noted above, it has been concluded that squalamine inhibits NHE3 and not NHE1. […] Such inhibitors affect only the absolute number of protons that can be secreted by the cell (i.e., “Vmax”), if one looks at the kinetic characteristics of the inhibition. […] Note the following Table 1, which correlates to data collected in the test of FIG. 5a.

LNCaP cells = test: LNCaP xenograft post-orchiectomy (Example 6); format: in vivo, athymic mice; conditions: 20 mg/kg/day for six to ten weeks from castration
Text: LNCaP cells admixed with Matrigelm were implanted subcutaneously in 52 athymic mice. Those that developed measurable tumors and sufficient elevations in serum prostate specific antigen (“PSA”) (measured using a standard commercially available kit such as from Abbott Diagnostics (St. Louis, Mo.)) underwent orchiectomy. Subsequent to castration, these animals were distributed among the four groups (1-4) outlined below: and an additional control cohort of mice which were castrated but never treated with squalamine.
In the majority of animals, PSA levels fell to zero at time of castration. By three weeks they began to rebound and continued to rise steadily until the animals succumbed or were sacrificed. In these same mice, tumor size tended to plateau at time of orchiectomy, before beginning to increase in size correspondingly with PSA rebound. The serum PSA curve and tumor volume measurements from two members of this last control cohort are illustrated in FIG. 15a and b, respectively.
Ten mice began treatment with squalamine concomitant with the fall in PSA after castration (Group 1). Of these, three never experienced a post-orchiectomy PSA nadir, and one experienced an early death, of unknown etiology. Six animals, however, were treated with squalamine (at 20 mg/kg/day) for a range of six to ten weeks. […]

T1 sequence (P48764 26-834): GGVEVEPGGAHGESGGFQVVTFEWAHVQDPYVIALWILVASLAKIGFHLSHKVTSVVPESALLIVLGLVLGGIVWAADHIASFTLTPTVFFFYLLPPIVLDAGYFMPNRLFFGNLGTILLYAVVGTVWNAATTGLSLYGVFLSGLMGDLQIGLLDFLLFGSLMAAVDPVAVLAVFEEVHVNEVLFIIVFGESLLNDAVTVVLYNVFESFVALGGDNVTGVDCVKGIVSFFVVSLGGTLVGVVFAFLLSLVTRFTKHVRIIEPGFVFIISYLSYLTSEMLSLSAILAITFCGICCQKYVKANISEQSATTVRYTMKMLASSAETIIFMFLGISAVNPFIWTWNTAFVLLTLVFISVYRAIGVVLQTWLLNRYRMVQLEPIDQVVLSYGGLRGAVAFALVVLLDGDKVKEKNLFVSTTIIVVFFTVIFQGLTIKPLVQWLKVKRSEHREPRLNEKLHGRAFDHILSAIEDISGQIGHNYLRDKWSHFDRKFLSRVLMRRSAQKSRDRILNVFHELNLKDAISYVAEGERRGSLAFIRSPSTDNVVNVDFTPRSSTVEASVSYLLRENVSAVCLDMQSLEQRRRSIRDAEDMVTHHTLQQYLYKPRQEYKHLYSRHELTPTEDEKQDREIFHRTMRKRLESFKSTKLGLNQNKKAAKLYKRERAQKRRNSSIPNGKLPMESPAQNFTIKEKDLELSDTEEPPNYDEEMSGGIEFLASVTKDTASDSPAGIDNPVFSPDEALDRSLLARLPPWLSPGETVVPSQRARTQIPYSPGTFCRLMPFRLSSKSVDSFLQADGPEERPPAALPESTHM

## CC(C)[C@@H](CC[C@@H](C)[C@H]1CC[C@H]2[C@@H]3[C@H](O)C[C@H]4C[C@@H](NCCCNCCCCN)CC[C@]4(C)[C@H]3CC[C@]12C)OS(=O)(=O)O [Squalamine, squalamine]
[1]
  % Reduction (based on control volume): 81.7%
  Mean Tumor volume: 3,347 mm^3
[1]; listed as squalamine
  % Reduction (based on control volume): 81.7%
[2]; 10 μg/ml
  inhibition at 10 µg/mL: 38%
[2]; 20 μg/ml
  inhibition at 20 µg/mL: 57%
[2]; 30 μg/ml
  inhibition at 30 µg/mL: 83%
[3]
  tumor growth, monotherapy: minimal effects on tumor growth
Human NHE3; 7 μg/ml squalamine, acid loaded cells
  effect on human NHE3 antiporter (pH change rate): inhibits human NHE3
Human NHE3; transfected cells
  time before NHE3 inhibition effect was observed: at least 30 minutes
LNCaP cells
  tumor masses: tended to diminish and, eventually, disappear
